The subject of data set [1] is H9. In words: Effective concentration against HIV-1 replication in H9 lymphocyte cells was determined. The format is functional, cell-based. To be noted: Homo sapiens.
Data set [2] is described as follows: Therapeutic index was determined; Value is >3,125 but < 15,625. The note with it: read-out: TI.
Data set [3] concerns U-937. As to the kind of experiment: Effective concentration against HIV-1 infection in U-937 cell line was determined. It is filed as functional, cell-based. To be noted: Homo sapiens.
A short description of data set [4]: Therapeutic index was determined; Value is >78049 but < 390244. To be noted: read-out: TI.
The nature of data set [5]: Effective concentration against HIV-1 infection in peripheral blood mononuclear cells was determined. The format is functional. The note with it: Homo sapiens.
Data set [6] deals with H9. As to the kind of experiment: Compound was tested for inhibitory activity against HIV-1 replication in H9 lymphocyte cells; Activity range >32 but <160. It is filed as functional, cell-based. The note with it: Homo sapiens.
Data set [7] in a line: Therapeutic index was determined; Value is >222 but < 1,111. The note with it: read-out: TI.
Data set [8] deals with H9. In words: Effective concentration against HIV-1 replication in H9 lymphocyte cells was determined; Activity >6.4 but < 32. It is filed as functional, cell-based. To be noted: Homo sapiens.
Data set [9] deals with H9. In words: Compound was tested for inhibitory activity against HIV-1 replication in H9 lymphocyte cells; Activity >6.4 but < 32. It is filed as functional, cell-based. The note with it: Homo sapiens.
Data set [10] is described as follows: Therapeutic index was determined. To be noted: read-out: TI.
The subject of data set [11] is H9. As to the kind of experiment: Compound was tested for inhibitory activity against HIV-1 replication in H9 lymphocyte cells. It is filed as functional, cell-based. The note with it: Homo sapiens.

SMILES strings stand for the structures. Bounds are passed on as bounds.

For the compound `CC1(C)Oc2ccc3ccc(=O)oc3c2[C@@H](OC(=O)C23CCC(C)(C(=O)O2)C3(C)C)[C@H]1OC(=O)C12CCC(C)(C(=O)O1)C2(C)C` (stereo not given in full), the values for the EC50 in [1], in data set [3] and in data set [5] were 0.00041 µM, 0.0021 µM and 0.029 µM, respectively. For the same compound, the selectivity ratio in data set [2] is greater than 3120; in data set [4], less than 390000; in data set [7], greater than 222. In data set [6], this compound yielded an IC50 of less than 160 µM.

The compound `CC1(C)Oc2ccc3ccc(=O)oc3c2[C@H](OC(=O)C23CCC(C)(C(=O)O2)C3(C)C)[C@H]1OC(=O)C12CCC(C)(C(=O)O1)C2(C)C` (stereo not given in full) displayed an EC50 in data set [8] of less than 32 µM. In data set [9], the 50% inhibitory concentration (IC50) is less than 32 µM. Further, in [10], the selectivity ratio is greater than 1.

Turning to `CC1(C)Oc2ccc3ccc(=O)oc3c2[C@H](OC(=O)C23CCC(C)(C(=O)O2)C3(C)C)[C@@H]1OC(=O)C12CCC(C)(C(=O)O1)C2(C)C` (stereo not given in full), it took 51 µM to reach a half-maximal effect in data set [1] (EC50). In data set [10], the selectivity ratio was greater than 33.3. The IC50 in data set [11] stood at 1700 µM.

In the case of `CC1(C)Oc2ccc3ccc(=O)oc3c2[C@@H](OC(=O)C23CCC(C)(C(=O)O2)C3(C)C)[C@@H]1OC(=O)C12CCC(C)(C(=O)O1)C2(C)C` (stereo not given in full), a half-maximal response in data set [1] (EC50) required 32 µM. Besides, in [10], the selectivity ratio was greater than 1. Moreover, in data set [11], the IC50 was greater than 32 µM.

As to `CC(=O)O[C@@H]1[C@H](OC(=O)CC(C)C)c2c(ccc3ccc(=O)oc23)OC1(C)C` [SUKSDORFIN], in data set [1], the EC50 came out at 1.3 µM. The selectivity ratio in [10] is greater than 40. Moreover, in [11], the IC50 is greater than 52 µM.

In [1], `Cc1cn([C@H]2C[C@H](N=[N+]=[N-])[C@@H](CO)O2)c(=O)[nH]c1=O` [ZIDOVUDINE] showed an EC50 of 0.15 µM.

The term EC50 denotes the concentration giving half of the maximal effect. In general, IC50 refers to the point on the concentration scale where inhibition reaches its midpoint. A high value points to weaker potency.

(Values after ChEMBL document CHEMBL1127250, “3,4-Di-o-()-camphanoyl-(+)-ciskhellactone and related compounds: A. new class of potent anti-HIV agents” (Bioorg Med Chem Lett, 1994).)
